Among the data in patent publication US8871756B2 (Hoffmann-La Roche Inc., priority 2011, dated 2014) are EC50 values, retold here.

Molecules are shown by their SMILES.

The first assay has as its system RSV Long strain. In words: Viral cytopathic effect (CPE) assay, anti-RSV activity. Type of assay: cell-based, Respiratory Syncytial Virus. The following applies: RSV Long strain (ATCC); cell viability after 6 days, Cell Counting kit-8. The essentials: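 EC50 was derived from CCK-8 viability at 450/630 nm measured 6 days post-infection. Infection used enough RSV Long strain for approximately 80–90% cytopathic effect, in the presence of half-log serially diluted compound. Cells were plated the day before at 6×10^3 per well in DMEM/10% FBS.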
For orientation: Protection from cytopathic effect is a common read-out in antiviral testing.
`Cc1ccc2nc(N3CC[S+]([O-])c4ccccc4C3)cc(NCC3(N)COC3)c2c1` (stereo not shown) [Example 18-1, N-[(3-Aminooxetan-3-yl)methyl]-6-methyl-2-(1-oxido-2,3-dihydro-1,4-benzothiazepin-4(5H)-yl)quinolin-4-amine] returned an EC50 of 0.003 µM.

Staying with this assay, now noted: human respiratory syncytial virus, 144 h, RSV Long strain (ATCC); cell viability after 6 days, Cell Counting kit-8.
`Clc1cc(N2CCCc3ccccc3C2)nc2ccccc12` [Example 118-26, 2-(4-Chloroquinolin-2-yl)-2,3,4,5-tetrahydro-1H-2-benzazepine]: the concentration giving a half-maximal response (EC50) stood at 7.75 µM. Compound `Cc1cccc2c(NCCCN)cc(N3CCS(=O)(=O)c4ccccc4C3)nc12` [Example 17-5, N-[2-(1,1-Dioxido-2,3-dihydro-1,4-benzothiazepin-4(5H)-yl)-8-methylquinolin-4-yl]propane-1,3-diamine] registered an EC50 of 1.5 µM. The compound `Cc1ccc2nc(N3CCS(=O)(=O)c4ccccc4C3)cc(NCC(C)(C)N)c2c1` [Example 5-3, N˜1˜-[2-(1,1-Dioxido-2,3-dihydro-1,4-benzothiazepin-4(5H)-yl)-6-methylquinolin-4-yl]-2-methylpropane-1,2-diamine] showed an EC50 of 0.015 µM. The same measure, in the same setting: for `Cc1ccc2nc(N3CCS(=O)(=O)c4ccccc4C3)cc(S(=O)(=O)NCCN)c2c1` [Example 103, N-(2-Aminoethyl)-2-(1,1-dioxido-2,3-dihydro-1,4-benzothiazepin-4(5H)-yl)-6-methylquinoline-4-sulfonamide] the value was 0.202 µM; for `Cc1ccc2nc(N3CCS(=O)(=O)c4ccccc4C3)cc(NCCS(C)(=N)=O)c2c1` (stereo not shown) [Example 77, 2-(1,1-Dioxido-2,3-dihydro-1,4-benzothiazepin-4(5H)-yl)-6-methyl-N-[2-(S-methylsulfonimidoyl)ethyl]quinolin-4-amine], 8.78 µM.

`Cc1ccc2nc(N3CCS(=O)(=O)c4ccccc4C3)cc(N3CCC(CN)CC3)c2c1` [Example 9-1, 1-{1-[2-(1,1-Dioxido-2,3-dihydro-1,4-benzothiazepin-4(5H)-yl)-6-methylquinolin-4-yl]piperidin-4-yl}methanamine] returned an EC50 of 2.35 µM.

`NCCCc1cc(N2CCCc3ccccc3C2)nc2ccccc12` [Example 128, 3-[2-(1,3,4,5-Tetrahydro-2H-2-benzazepin-2-yl)quinolin-4-yl]propan-1-amine] gave an EC50 of 7.17 µM.

As to `N[C@@H]1CN(c2cc(N3CCS(=O)(=O)c4ccccc4C3)nc3ccc(Cl)cc23)C[C@H]1F` (relative stereo) [Example 19-5, trans-1-[6-Chloro-2-(1,1-dioxido-2,3-dihydro-1,4-benzothiazepin-4(5H)-yl)quinolin-4-yl]-4-fluoropyrrolidin-3-amine], the EC50 was 3.07 µM. As for `Cc1ccc2nc(N3CCS(=O)(=O)c4ccccc4C3)cc(N3CCC(N)C3)c2c1` (stereo not shown) [Example 25, 1-[2-(1,1-Dioxido-2,3-dihydro-1,4-benzothiazepin-4(5H)-yl)-6-methylquinolin-4-yl]pyrrolidin-3-amine], the concentration giving a half-maximal response (EC50) came to 0.002 µM. In the case of `Cc1ccc2nc(N3CCS(=O)(=O)c4ccccc4C3)cc(NCC3(C)CN=C(N)O3)c2c1` (stereo not shown) [Example 38-2, N-[(2-Amino-5-methyl-4,5-dihydro-1,3-oxazol-5-yl)methyl]-2-(1,1-dioxido-2,3-dihydro-1,4-benzothiazepin-4(5H)-yl)-6-methylquinolin-4-amine], the EC50 was determined as 0.302 µM. `NCCCNc1cc(N2CCS(=O)(=O)c3ccccc3C2)nc2ccc(Oc3ccccn3)cc12` [Example 31, N-[2-(1,1-Dioxido-2,3-dihydro-1,4-benzothiazepin-4(5H)-yl)-6-(pyridin-2-yloxy)quinolin-4-yl]propane-1,3-diamine] registered an EC50 of 0.702 µM. Still for that read-out and setting: the value for `Cc1ccc2nc(N3CCS(=O)(=O)c4ccccc4C3)cc(NCCOCCN)c2c1` [Example 5-2, N-[2-(2-Aminoethoxy)ethyl]-2-(1,1-dioxido-2,3-dihydro-1,4-benzothiazepin-4(5H)-yl)-6-methylquinolin-4-amine] was 0.211 µM; that for `Cc1ccc2nc(N3CCS(=O)(=O)c4ccccc4C3)cc(NC[C@H](O)CO)c2c1` [Example 3-10, (2S)-3-{[2-(1,1-Dioxido-2,3-dihydro-1,4-benzothiazepin-4(5H)-yl)-6-methylquinolin-4-yl]amino}propane-1,2-diol] was 0.053 µM; that for `Cc1ccc2nc(N3CCS(=O)(=O)c4ccccc4C3)cc(NCC3COC3)c2c1` [Example 3-53, 2-(1,1-Dioxido-2,3-dihydro-1,4-benzothiazepin-4(5H)-yl)-6-methyl-N-(oxetan-3-ylmethyl)quinolin-4-amine] was 0.261 µM.

On to `Cc1ccc2nc(N3CCS(=O)(=O)c4ccccc4C3)cc(NCCC3(N)COC3)c2c1` [Example 2-7, N-[2-(3-Aminooxetan-3-yl)ethyl]-2-(1,1-dioxido-2,3-dihydro-1,4-benzothiazepin-4(5H)-yl)-6-methylquinolin-4-amine], for which the midpoint of the response, the EC50, lay at 0.234 µM. In turn, `Cc1ccc2nc(N3CCS(=O)(=O)c4cc(F)ccc4C3)cc(NCC3(N)COC3)c2c1` [Example 1-2, N-[(3-Aminooxetan-3-yl)methyl]-2-(8-fluoro-1,1-dioxido-2,3-dihydro-1,4-benzothiazepin-4(5H)-yl)-6-methylquinolin-4-amine] had an EC50 of 0.007 µM. Compound `Cc1ccc2nc(N3CCC(F)(F)c4ccccc4C3)cc(N3CCC(N)C3)c2c1` (stereo not shown) [Example 111-4, 1-[2-(5,5-Difluoro-1,3,4,5-tetrahydro-2H-2-benzazepin-2-yl)-6-methylquinolin-4-yl]pyrrolidin-3-amine] returned an EC50 of 0.066 µM. In turn, `Cc1ccc2nc(N3CCS(=O)(=O)c4ccccc4C3)cc(NCC(C)(O)CO)c2c1` (stereo not shown) [Example 67, 3-{[2-(1,1-Dioxido-2,3-dihydro-1,4-benzothiazepin-4(5H)-yl)-6-methylquinolin-4-yl]amino}-2-methylpropane-1,2-diol] showed an EC50 of 0.585 µM.

`Cc1ccc2nc(N3CC[S+]([O-])c4ccccc4C3)nc(N3C[C@@H](N)[C@H](F)C3)c2c1` (relative stereo) [Example 62-7, trans-4-Fluoro-1-[6-methyl-2-(1-oxido-2,3-dihydro-1,4-benzothiazepin-4(5H)-yl)quinazolin-4-yl]pyrrolidin-3-amine]: it took 0.186 µM to reach a half-maximal effect (EC50). Regarding `Cc1ccc2nc(N3CCSc4ccccc4C3)nc(N)c2c1` [Example 58, 2-(2,3-Dihydro-1,4-benzothiazepin-4(5H)-yl)-6-methylquinazolin-4-amine], the EC50 worked out at 2.77 µM. `CCNC(=O)Nc1cc(N2CCC(F)(F)c3ccccc3C2)nc2ccc(C)cc12` [Example 110-14]: the EC50 was 0.648 µM.

On to `Cc1ccc2nc(N3CCS(=O)(=O)c4ccccc4C3)cc(NCC(=O)O)c2c1` [Example 9-8, N-[2-(1,1-Dioxido-2,3-dihydro-1,4-benzothiazepin-4(5H)-yl)-6-methylquinolin-4-yl]glycine], for which the EC50 came out at 3.48 µM. On the same count and under the same terms, for `NCCCNc1cc(N2CCS(=O)(=O)c3ccccc3C2)nc2cccc(Cl)c12` [Example 9-13, N-[5-Chloro-2-(1,1-dioxido-2,3-dihydro-1,4-benzothiazepin-4(5H)-yl)quinolin-4-yl]propane-1,3-diamine] the value was 0.701 µM. Take `Cc1ccc2nc(N3CCS(=O)(=O)c4ccccc4C3)cc(NCCN3CCNCC3)c2c1` [Example 3-28, 2-(1,1-Dioxido-2,3-dihydro-1,4-benzothiazepin-4(5H)-yl)-6-methyl-N-[2-(piperazin-1-yl)ethyl]quinolin-4-amine]: the EC50 is 0.149 µM. Consider `Cc1ccc2nc(N3CCS(=O)(=O)c4ccccc4C3)cc(N3CC[C@@H](O)C3)c2c1` [Example 15-4, (3R)-1-[2-(1,1-Dioxido-2,3-dihydro-1,4-benzothiazepin-4(5H)-yl)-6-methylquinolin-4-yl]pyrrolidin-3-ol], for which the EC50 amounted to 0.257 µM. In turn, `Cc1ccc2nc(N3CCC(F)(F)c4ccccc4C3)cc(N(CCO)CCO)c2c1` [Example 110-11, 2,2′-{[2-(5,5-Difluoro-1,3,4,5-tetrahydro-2H-2-benzazepin-2-yl)-6-methylquinolin-4-yl]imino}diethanol] had an EC50 of 6.75 µM. On to `Cc1ccc2nc(N3CCS(=O)(=O)c4ccccc4C3)cc(NC(=O)C3CCCNC3)c2c1` (stereo not shown) [Example 3-61, N-[2-(1,1-Dioxido-2,3-dihydro-1,4-benzothiazepin-4(5H)-yl)-6-methylquinolin-4-yl]piperidine-3-carboxamide], for which the EC50 was 0.118 µM.

Turning to `COCCNc1cc(N2CCS(=O)(=O)c3ccccc3C2)nc2ccc(C)cc12` [Example 9-26, 2-(1,1-Dioxido-2,3-dihydro-1,4-benzothiazepin-4(5H)-yl)-N-(2-methoxyethyl)-6-methylquinolin-4-amine], a half-maximal response (EC50) required 7.2 µM.

As for `Cc1ccc2nc(N3CCS(=O)(=O)c4ccccc4C3)cc(NCCC(N)C(F)(F)F)c2c1` (stereo not shown) [Example 42-1, N^˜1^˜-[2-(1,1-Dioxido-2,3-dihydro-1,4-benzothiazepin-4(5H)-yl)-6-methylquinolin-4-yl]-4,4,4-trifluorobutane-1,3-diamine], the EC50 was found to be 8.95 µM. Regarding `Cc1ccc2nc(N3CCC(F)(F)c4ccccc4C3)cc(NCCS(=O)(=O)CCN)c2c1` [Example 113, N-{2-[(2-Aminoethyl)sulfonyl]ethyl}-2-(5,5-difluoro-1,3,4,5-tetrahydro-2H-2-benzazepin-2-yl)-6-methylquinolin-4-amine], the midpoint of the response, the EC50, lay at 0.733 µM.

As to `NCCNc1cc(N2CCCc3c(Cl)cccc3C2)nc2ccccc12` [Example 118-12, N-[2-(6-Chloro-1,3,4,5-tetrahydro-2H-2-benzazepin-2-yl)quinolin-4-yl]ethane-1,2-diamine], the EC50 was found to be 0.448 µM. Compound `Cc1ccc2nc(N3CC[S+]([O-])c4ccccc4C3)cc(N3CCC(N)C3)c2c1` (stereo not shown) [Example 19-4, 1-[6-Methyl-2-(1-oxido-2,3-dihydro-1,4-benzothiazepin-4(5H)-yl)quinolin-4-yl]pyrrolidin-3-amine] displayed an EC50 of 0.02 µM. The compound `COc1ccc2nc(N3CCS(=O)(=O)c4ccccc4C3)cc(NCCCN)c2c1` [Example 17-4, N-[2-(1,1-Dioxido-2,3-dihydro-1,4-benzothiazepin-4(5H)-yl)-6-methoxyquinolin-4-yl]propane-1,3-diamine] yielded an EC50 of 0.071 µM.

As usually defined, the EC50 is the concentration that produces a half-maximal response. A low value points to a more potent agent.
